pIC50: −log10 of the molar value.
What was measured:
Assay type in all cases: biochemical
[1] = molecular target: T1, AKT3 (Homo sapiens, UniProt Q9Y243); test: AKT Kinase Assay (IMAP fluorescent polarisation) vs AKT3
T1 construct: purchased SignalChem
Procedure: (§1) Testing of the compounds was performed using an AKT Kinase Assay:
(§2) Activated AKT isoforms 1, 2 and 3 were assayed utilising a 5′ FAM Crosstide (Seq. GRPRTSSFAEG-OH)(SEO ID NO: 1). The extent of kinase phosphorylation was determined by fluorescent polarisation using IMAP progressive binding reagent, which introduces binding beads which allow the reagent to specifically bind to phosphate residues via covalent co-ordination complex bonds.
(§3) iMAP binding solution stops Crosstide/kinase interaction and specifically binds phosphorylated substrates. The degree of phosphorylation is determined by fluorescent polarisation (excitation 485 nm; emission 528 nm) or the reduction in speed of rotation of the excited substrate.
(§4) The following materials were used in the assay: • a) Activated AKT isoforms (SignalChem.) dissolved in Complete Reaction buffer at a pre-determined concentration selected so that the assay was carried out in the linear range. • b) AKT substrate peptide: FAM Crosstide (R7110) Molecular Devices, diluted in complete reaction buffer. • c) iMAP Progressive Screening Express Kit (R8127) Molecular Devices • d) Complete Reaction Buffer containing 0.1% BSA, 10 mM Tris-HCl, 10 mM MgCl2, 0.05% NaN3 and 0.01% phosphate free BSA, 1 mM DTT • e) Progressive Binding Solution containing 75% Buffer A, 25% Buffer B and low volume Binding Reagent which contains the binding entity for the assay • f) ATP diluted in complete reaction buffer • g) Black polystyrene 384 well assay plates (Nunc). • h) Biotek Synergy 4 Hybrid Plate reader.
(§5) 5 μl of test compound was dissolved in DMSO (Sigma Aldrich) and serially diluted in complete reaction buffer to give a fourteen point half log dose response and plated into 384 well black plates. The compound was incubated at room temperature with activated AKT isoform ([…] ) at the pre-determined concentration, for 45 minutes.
(§6) 2.5 μl of ATP solution mixed with 2.5 μl of AKT substrate peptide (FAM Crosstide (R7110) Molecular Devices) were dispensed into each well and the plate centrifuged at 1000 rpm for 20 seconds to ensure homogenous mixing of reagents. The reaction mix was incubated in the dark for one hour at room temperature.
(§7) The kinase reaction was stopped by the addition of Progressive Binding Solution and the mixture allowed to equilibrate for one hour in the dark, at room temperature.
(§8) The fluorescent polarisation generated in each well was determined using a […] Synergy 4 Hybrid plate reader. In brief, each reaction solution was excited at 485 nm with the emission measured at 528 nm in both the parallel and perpendicular pathway.
(§9) The polarisation value generated in each well was calculated by Gen5 software (Biotek) and the % inhibition of kinase activity compared to vehicle control was calculated via GraphPad Prism. IC50 values for each compound were calculated by non-linear regression analysis using Prism software.
(§10) All plates were internally controlled by two methods. Firstly, by calculating the signal:noise ratio; based on kinase polarisation without inhibitor and polarisation generated by complete reaction buffer in the absence of activated kinase. Secondly by determining IC50 values generated by known inhibitors of the AKT isoforms.

[2] = molecular target: T2, AKT1 (Homo sapiens, UniProt P31749); test: AKT Kinase Assay (IMAP fluorescent polarisation) vs AKT1
T2 construct: purchased SignalChem
Procedure: as §1, §2, §3, §4, §5, §6, §7, §8, §9, §10

[3] = molecular target: T3, AKT2 (Homo sapiens, UniProt P31751); test: AKT Kinase Assay (IMAP fluorescent polarisation) vs AKT2
T3 construct: purchased SignalChem
Procedure: as §1, §2, §3, §4, §5, §6, §7, §8, §9, §10

T2 sequence (P31749 whole entry): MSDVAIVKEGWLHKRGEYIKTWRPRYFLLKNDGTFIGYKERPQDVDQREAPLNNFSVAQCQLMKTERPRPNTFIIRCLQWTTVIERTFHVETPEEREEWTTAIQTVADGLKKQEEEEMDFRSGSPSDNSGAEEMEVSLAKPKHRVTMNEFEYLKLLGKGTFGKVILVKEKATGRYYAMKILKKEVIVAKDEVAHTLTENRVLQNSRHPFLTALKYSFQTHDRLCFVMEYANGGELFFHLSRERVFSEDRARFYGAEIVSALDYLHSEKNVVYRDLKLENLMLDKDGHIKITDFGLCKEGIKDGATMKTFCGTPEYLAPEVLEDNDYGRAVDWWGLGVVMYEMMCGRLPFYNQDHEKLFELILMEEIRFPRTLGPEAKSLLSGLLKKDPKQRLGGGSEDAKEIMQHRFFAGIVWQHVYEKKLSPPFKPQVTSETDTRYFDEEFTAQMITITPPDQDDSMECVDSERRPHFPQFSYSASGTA
T3 sequence (P31751 whole entry): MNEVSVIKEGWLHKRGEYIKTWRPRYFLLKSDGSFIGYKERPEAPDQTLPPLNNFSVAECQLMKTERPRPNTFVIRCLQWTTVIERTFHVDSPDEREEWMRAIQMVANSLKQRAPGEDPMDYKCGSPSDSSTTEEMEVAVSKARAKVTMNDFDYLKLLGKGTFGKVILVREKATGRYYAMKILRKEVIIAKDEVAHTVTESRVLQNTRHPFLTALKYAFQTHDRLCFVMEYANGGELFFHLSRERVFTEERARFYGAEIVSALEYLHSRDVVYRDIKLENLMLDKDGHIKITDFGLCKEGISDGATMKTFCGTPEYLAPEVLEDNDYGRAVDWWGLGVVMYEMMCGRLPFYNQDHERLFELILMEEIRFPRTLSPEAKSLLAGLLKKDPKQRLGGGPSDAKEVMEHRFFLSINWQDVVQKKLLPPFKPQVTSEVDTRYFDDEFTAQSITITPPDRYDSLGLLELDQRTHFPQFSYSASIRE
T1 sequence (Q9Y243 whole entry): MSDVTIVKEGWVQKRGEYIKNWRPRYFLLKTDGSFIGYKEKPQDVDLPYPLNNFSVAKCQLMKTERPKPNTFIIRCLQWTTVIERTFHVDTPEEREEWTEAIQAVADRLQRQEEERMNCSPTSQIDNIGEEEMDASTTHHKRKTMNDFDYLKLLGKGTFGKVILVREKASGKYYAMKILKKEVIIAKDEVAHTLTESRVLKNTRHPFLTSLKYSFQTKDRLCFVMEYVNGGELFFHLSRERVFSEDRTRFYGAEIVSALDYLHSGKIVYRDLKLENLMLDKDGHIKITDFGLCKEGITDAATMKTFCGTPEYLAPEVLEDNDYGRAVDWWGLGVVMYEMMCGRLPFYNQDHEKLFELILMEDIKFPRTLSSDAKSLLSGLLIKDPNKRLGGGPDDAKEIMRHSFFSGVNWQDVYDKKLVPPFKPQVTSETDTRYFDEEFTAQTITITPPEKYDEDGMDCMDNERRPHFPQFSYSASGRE

Compound | pIC50 [1] | pIC50 [2] | pIC50 [3]
Cn1cnc(-c2nnc3n2CCc2nc(-c4ccc(C5(N)CCC5)cc4)c(-c4ccccc4)cc2-3)c1 [Example 29, 1-(4-(3-(1-methyl-1H-imidazol-4-yl)-9-phenyl-5,6-dihydro-[1,2,4]triazolo[3,4-f][1,6]naphthyridin-8-yl)phenyl)cyclobutanamine] | < 5.00 | ≥ 7.00 | 6.00 to 7.00
NC1(c2ccc(-c3nc4c(cc3-c3ccccc3)NC(=O)CO4)cc2)CCC1 [Example 30, 6-(4-(1-aminocyclobutyl)phenyl)-7-phenyl-1H-pyrido[2,3-b][1,4]oxazin-2(3H)-one] | 5.00 to 6.00 | 5.00 to 6.00 | 5.00 to 6.00
C#CCN1C(=O)COc2nc(-c3ccc(C4(N)CCC4)cc3)c(-c3ccccc3)cc21 [Example 32, 6-(4-(1-aminocyclobutyl)phenyl)-7-phenyl-1-(prop-2-yn-1-yl)-1H-pyrido[2,3-b][1,4]oxazin-2(3H)-one] | < 5.00 | 6.00 to 7.00 | 6.00 to 7.00
N#CCN1C(=O)COc2nc(-c3ccc(C4(N)CCC4)cc3)c(-c3ccccc3)cc21 [Example 33, 2-(6-(4-(1-aminocyclobutyl)phenyl)-2-oxo-7-phenyl-2,3-dihydro-1H-pyrido[2,3-b][1,4]oxazin-1-yl)acetonitrile] | 6.00 to 7.00 | ≥ 7.00 | ≥ 7.00
CN(C)CCN1C(=O)COc2nc(-c3ccc(C4(N)CCC4)cc3)c(-c3ccccc3)cc21 [Example 34, 6-(4-(1-aminocyclobutyl)phenyl)-1-(2-(dimethylamino)ethyl)-7-phenyl-1H-pyrido[2,3-b][1,4]oxazin-2(3H)-one] | < 5.00 | 5.00 to 6.00 | 5.00 to 6.00
NC(=O)CN1C(=O)COc2nc(-c3ccc(C4(N)CCC4)cc3)c(-c3ccccc3)cc21 [Example 35, 2-(6-(4-(1-aminocyclobutyl)phenyl)-2-oxo-7-phenyl-2,3-dihydro-1H-pyrido[2,3-b][1,4]oxazin-1-yl)acetamide] | < 5.00 | 5.00 to 6.00 | 6.00 to 7.00
CC(=O)CN1C(=O)COc2nc(-c3ccc(C4(N)CCC4)cc3)c(-c3ccccc3)cc21 [Example 36, 6-(4-(1-aminocyclobutyl)phenyl)-1-(2-oxopropyl)-7-phenyl-1H-pyrido[2,3-b][1,4]oxazin-2(3H)-one] | 5.00 to 6.00 | 6.00 to 7.00 | 5.00 to 6.00
NC1(c2ccc(-c3nc4c(cc3-c3ccccc3)NCCO4)cc2)CCC1 [Example 37, 1-(4-(7-phenyl-2,3-dihydro-1H-pyrido[2,3-b][1,4]oxazin-6-yl)phenyl)cyclobutanamine] | < 5.00 | 6.00 to 7.00 | 5.00 to 6.00
NC1(c2ccc(-c3nc4c(cc3-c3ccccc3)-n3c(n[nH]c3=O)CO4)cc2)CCC1 [Example 38, 7-(4-(1-aminocyclobutyl)phenyl)-8-phenyl-2,4-dihydro-1H-pyrido[2,3-b][1,2,4]triazolo[4,3-d][1,4]oxazin-1-one] | 5.00 to 6.00 | 6.00 to 7.00 | 6.00 to 7.00
NC1(c2ccc(-c3nc4c(cc3-c3ccccc3)-n3cnnc3CO4)cc2)CCC1 [Example 39, 1-(4-(8-phenyl-4H-pyrido[2,3-b][1,2,4]triazolo[4,3-d][1,4]oxazin-7-yl)phenyl)cyclobutanamine] | < 5.00 | 6.00 to 7.00 | 5.00 to 6.00
CN1CCOc2nc(-c3ccc(C4(N)CCC4)cc3)c(-c3ccccc3)cc21 [Example 40, 1-(4-(1-methyl-7-phenyl-2,3-dihydro-1H-pyrido[2,3-b][1,4]oxazin-6-yl)phenyl)cyclobutanamine] | < 5.00 | 6.00 to 7.00 | 5.00 to 6.00

Now from value to compound:

pIC50 [1] | pIC50 [2] | pIC50 [3] | Compound
< 5.00 | 5.00 to 6.00 | 6.00 to 7.00 | CC(=O)N1CCOc2nc(-c3ccc(C4(N)CCC4)cc3)c(-c3ccccc3)cc21 [Example 41, 1-(6-(4-(1-aminocyclobutyl)phenyl)-7-phenyl-2,3-dihydro-1H-pyrido[2,3-b][1,4]oxazin-1-yl)ethanone]
5.00 to 6.00 | 5.00 to 6.00 | 6.00 to 7.00 | NC1(c2ccc(-c3nc4c(cc3-c3ccccc3)N(Cc3ncc[nH]3)C(=O)CO4)cc2)CCC1 [Example 42, 1-((1H-imidazol-2-yl)methyl)-6-(4-(1-aminocyclobutyl)phenyl)-7-phenyl-1H-pyrido[2,3-b][1,4]oxazin-2(3H)-one]
< 5.00 | 6.00 to 7.00 | ≥ 7.00 | N#CCN1CCOc2nc(-c3ccc(C4(N)CCC4)cc3)c(-c3ccccc3)cc21 [Example 43, 2-(6-(4-(1-aminocyclobutyl)phenyl)-7-phenyl-2,3-dihydro-1H-pyrido[2,3-b][1,4]oxazin-1-yl)acetonitrile]
< 5.00 | 5.00 to 6.00 | 5.00 to 6.00 | NC(=O)CN1CCOc2nc(-c3ccc(C4(N)CCC4)cc3)c(-c3ccccc3)cc21 [Example 44, 2-(6-(4-(1-aminocyclobutyl)phenyl)-7-phenyl-2,3-dihydro-1H-pyrido[2,3-b][1,4]oxazin-1-yl)acetamide]
5.00 to 6.00 | 5.00 to 6.00 | 6.00 to 7.00 | NC1(c2ccc(-c3nc4c(cc3-c3ccccc3)N(Cc3ccncc3)C(=O)CO4)cc2)CCC1 [Example 45, 6-(4-(1-aminocyclobutyl)phenyl)-7-phenyl-1-(pyridin-4-ylmethyl)-1H-pyrido[2,3-b][1,4]oxazin-2(3H)-one]
6.00 to 7.00 | 6.00 to 7.00 | 6.00 to 7.00 | NC1(c2ccc(-c3nc4c(cc3-c3ccccc3)N(Cc3cccnc3)C(=O)CO4)cc2)CCC1 [Example 46, 6-(4-(1-aminocyclobutyl)phenyl)-7-phenyl-1-(pyridin-3-ylmethyl)-1H-pyrido[2,3-b][1,4]oxazin-2(3H)-one]
5.00 to 6.00 | ≥ 7.00 | 6.00 to 7.00 | CCc1nnc2n1-c1cc(-c3ccccc3)c(-c3ccc(C4(N)CCC4)cc3)nc1OC2 [Example 47, 1-(4-(1-ethyl-8-phenyl-4H-pyrido[2,3-b][1,2,4]triazolo[4,3-d][1,4]oxazin-7-yl)phenyl)cyclobutanamine]
6.00 to 7.00 | 6.00 to 7.00 | ≥ 7.00 | NC1(c2ccc(-c3nc4c(cc3-c3ccccc3)N(CC3CCC3)C(=O)CO4)cc2)CCC1 [Example 48, 6-(4-(1-aminocyclobutyl)phenyl)-1-(cyclobutylmethyl)-7-phenyl-1H-pyrido[2,3-b][1,4]oxazin-2(3H)-one]
6.00 to 7.00 | 6.00 to 7.00 | 6.00 to 7.00 | CCOC(=O)CN1C(=O)COc2nc(-c3ccc(C4(N)CCC4)cc3)c(-c3ccccc3)cc21 [Example 49, ethyl 2-(6-(4-(1-aminocyclobutyl)phenyl)-2-oxo-7-phenyl-2,3-dihydro-1H-pyrido[2,3-b][1,4]oxazin-1-yl)acetate]
5.00 to 6.00 | ≥ 7.00 | 6.00 to 7.00 | Nc1nnc2n1-c1cc(-c3ccccc3)c(-c3ccc(C4(N)CCC4)cc3)nc1OC2 [Example 50, 7-(4-(1-aminocyclobutyl)phenyl)-8-phenyl-4H-pyrido[2,3-b][1,2,4]triazolo[4,3-d][1,4]oxazin-1-amine]
5.00 to 6.00 | 6.00 to 7.00 | 6.00 to 7.00 | COCCN1C(=O)COc2nc(-c3ccc(C4(N)CCC4)cc3)c(-c3ccccc3)cc21 [Example 51, 6-(4-(1-aminocyclobutyl)phenyl)-1-(2-methoxyethyl)-7-phenyl-1H-pyrido[2,3-b][1,4]oxazin-2(3H)-one]

Source: patent publication US9221838B2, “Inhibitors of AKT activity” (ALMAC DISCOVERY LIMITED, priority 2009, dated 2015)
